Experimental data reported in patent publication US20070031328A1, “Radiolabeled-pegylation of ligands for use as imaging agents” (priority 2005, published 2007).

Test: Biodistribution studies in normal mice
Format: in vivo, male ICR mice
Settings: tail vein injection, avg of 3 mice ± SD
Method: While under isoflurane anesthesia, 0.15 mL of a saline solution containing the F-18 tracers (10-20 uCi) was injected directly into the lateral tail vein of male ICR mice. The mice (n=3 for each time point) were sacrificed by cervical dislocation at 2, 30, 60 and 120 minutes post-injection. The organs of interest were removed, weighed and assayed for radioactivity content with an automatic gamma counter. The percentage dose per organ was calculated by a comparison of the tissue counts to suitably diluted aliquots of the injected material. Total activities of blood and bone were calculated under the assumption that they were 7% and 14% of the body weight, respectively. The % dose/g of samples was calculated by comparing the sample counts with the count of the diluted initial dose.

Row | Compound | Blood biodistribution (2 min) [% dose/g] | Blood biodistribution (30 min) [% dose/g] | Blood biodistribution (1 hr) [% dose/g] | Blood biodistribution (2 hr) [% dose/g] | Bone biodistribution (2 min) [% dose/g] | Bone biodistribution (30 min) [% dose/g] | Bone biodistribution (1 hr) [% dose/g] | Bone biodistribution (2 hr) [% dose/g] | Brain biodistribution (2 min) [% dose/g] | Brain biodistribution (30 min) [% dose/g] | Brain biodistribution (1 hr) [% dose/g] | Brain biodistribution (2 hr) [% dose/g] | Heart biodistribution (2 min) [% dose/g] | Heart biodistribution (30 min) [% dose/g] | Heart biodistribution (1 hr) [% dose/g] | Heart biodistribution (2 hr) [% dose/g] | Kidney biodistribution (2 min) [% dose/g] | Kidney biodistribution (30 min) [% dose/g] | Kidney biodistribution (1 hr) [% dose/g] | Kidney biodistribution (2 hr) [% dose/g] | also measured
1 | CNc1ccc(-c2nc3ccc(OCCOCC[18F])cc3s2)cc1 [[^18F]5a] | 3.37 ± 0.46 | 3.60 ± 0.13 | 4.55 ± 0.40 | 4.38 ± 0.14 | 1.69 ± 0.21 | 2.28 ± 0.20 | 3.17 ± 0.39 | 6.35 ± 1.32 | 10.27 ± 1.30 | 4.59 ± 0.47 | 3.94 ± 0.04 | 3.86 ± 0.35 | 8.32 ± 0.37 | 3.49 ± 0.27 | 3.81 ± 0.25 | 3.59 ± 0.03 | 13.02 ± 1.04 | 4.54 ± 0.62 | 3.98 ± 0.24 | 3.18 ± 0.16 | Liver biodistribution (2 min): 19.02 ± 1.06 % dose/g; Liver biodistribution (30 min): 7.98 ± 0.60 % dose/g; Liver biodistribution (1 hr): 6.35 ± 0.46 % dose/g; Liver biodistribution (2 hr): 5.05 ± 0.43 % dose/g; Lung biodistribution (2 min): 7.79 ± 0.34 % dose/g; Lung biodistribution (30 min): 3.91 ± 0.28 % dose/g; Lung biodistribution (1 hr): 3.84 ± 0.55 % dose/g; Lung biodistribution (2 hr): 3.63 ± 0.15 % dose/g; Muscle biodistribution (2 min): 0.82 ± 0.12 % dose/g; Muscle biodistribution (30 min): 2.83 ± 0.22 % dose/g; Muscle biodistribution (1 hr): 2.76 ± 0.17 % dose/g; Muscle biodistribution (2 hr): 2.36 ± 0.11 % dose/g; Skin biodistribution (2 min): 1.08 ± 0.22 % dose/g; Skin biodistribution (30 min): 3.14 ± 0.22 % dose/g; Skin biodistribution (1 hr): 3.15 ± 0.28 % dose/g; Skin biodistribution (2 hr): 2.62 ± 0.16 % dose/g; Spleen biodistribution (2 min): 6.92 ± 0.79 % dose/g; Spleen biodistribution (30 min): 3.93 ± 0.29 % dose/g; Spleen biodistribution (1 hr): 3.87 ± 0.61 % dose/g; Spleen biodistribution (2 hr): 3.32 ± 0.16 % dose/g
2 | CNc1ccc(-c2nc3ccc(OCCOCCOCC[18F])cc3s2)cc1 [[^18F]5b] | 6.29 ± 1.19 | 3.41 ± 0.07 | 3.91 ± 0.23 | 4.04 ± 0.45 | 2.13 ± 0.16 | 1.48 ± 0.03 | 1.82 ± 0.04 | 2.41 ± 0.28 | 5.53 ± 0.56 | 2.33 ± 0.15 | 2.18 ± 0.09 | 1.96 ± 0.13 | 6.26 ± 1.12 | 3.22 ± 0.33 | 3.06 ± 0.15 | 2.50 ± 0.09 | 9.02 ± 0.77 | 5.27 ± 0.77 | 3.97 ± 0.25 | 2.97 ± 0.07 | Liver biodistribution (2 min): 21.84 ± 1.56 % dose/g; Liver biodistribution (30 min): 13.75 ± 1.88 % dose/g; Liver biodistribution (1 hr): 11.22 ± 0.82 % dose/g; Liver biodistribution (2 hr): 9.13 ± 1.11 % dose/g; Lung biodistribution (2 min): 7.35 ± 1.50 % dose/g; Lung biodistribution (30 min): 3.94 ± 0.29 % dose/g; Lung biodistribution (1 hr): 3.63 ± 0.25 % dose/g; Lung biodistribution (2 hr): 3.24 ± 0.10 % dose/g; Muscle biodistribution (2 min): 1.40 ± 0.11 % dose/g; Muscle biodistribution (30 min): 1.92 ± 0.34 % dose/g; Muscle biodistribution (1 hr): 1.58 ± 0.13 % dose/g; Muscle biodistribution (2 hr): 1.38 ± 0.11 % dose/g; Skin biodistribution (2 min): 2.09 ± 0.22 % dose/g; Skin biodistribution (30 min): 2.27 ± 0.17 % dose/g; Skin biodistribution (1 hr): 1.92 ± 0.13 % dose/g; Skin biodistribution (2 hr): 1.57 ± 0.06 % dose/g; Spleen biodistribution (2 min): 5.24 ± 0.67 % dose/g; Spleen biodistribution (30 min): 2.66 ± 0.14 % dose/g; Spleen biodistribution (1 hr): 2.84 ± 0.13 % dose/g; Spleen biodistribution (2 hr): 2.46 ± 0.05 % dose/g
3 | CNc1ccc(-c2nc3ccc(OCCOCCOCCOCCOCCOCC[18F])cc3s2)cc1 [[^18F]5c] | 3.54 ± 0.12 | 2.52 ± 0.29 | 2.46 ± 0.29 | 1.54 ± 0.19 | 1.68 ± 0.60 | 1.20 ± 0.29 | 1.68 ± 0.17 | 2.31 ± 0.37 | 2.57 ± 0.12 | 1.69 ± 0.23 | 1.80 ± 0.25 | 1.29 ± 0.17 | 9.37 ± 0.18 | 2.11 ± 0.27 | 1.82 ± 0.28 | 1.19 ± 0.15 | 23.00 ± 0.89 | 5.01 ± 0.84 | 3.50 ± 0.86 | 1.27 ± 0.08 | Liver biodistribution (2 min): 12.43 ± 1.11 % dose/g; Liver biodistribution (30 min): 3.94 ± 0.29 % dose/g; Liver biodistribution (1 hr): 2.86 ± 0.38 % dose/g; Liver biodistribution (2 hr): 1.67 ± 0.32 % dose/g; Lung biodistribution (2 min): 4.68 ± 0.27 % dose/g; Lung biodistribution (30 min): 2.41 ± 0.37 % dose/g; Lung biodistribution (1 hr): 2.08 ± 0.32 % dose/g; Lung biodistribution (2 hr): 1.24 ± 0.16 % dose/g; Muscle biodistribution (2 min): 1.60 ± 0.98 % dose/g; Muscle biodistribution (30 min): 1.87 ± 0.38 % dose/g; Muscle biodistribution (1 hr): 1.52 ± 0.24 % dose/g; Muscle biodistribution (2 hr): 0.93 ± 0.07 % dose/g; Skin biodistribution (2 min): 0.95 ± 0.12 % dose/g; Skin biodistribution (30 min): 2.14 ± 1.03 % dose/g; Skin biodistribution (1 hr): 1.42 ± 0.14 % dose/g; Skin biodistribution (2 hr): 0.91 ± 0.10 % dose/g; Spleen biodistribution (2 min): 4.74 ± 0.23 % dose/g; Spleen biodistribution (30 min): 2.05 ± 0.18 % dose/g; Spleen biodistribution (1 hr): 1.87 ± 0.26 % dose/g; Spleen biodistribution (2 hr): 1.13 ± 0.16 % dose/g
